Experiment [1] is described as follows: Compound was evaluated for its binding affinity against muscarinic acetylcholine receptor M2 in guinea pig heart using (-)-[3H]-QNB as radioligand.
Experiment [2] is described as follows: Compound was evaluated for its binding affinity against Muscarinic acetylcholine receptor M1 in guinea pig cerebral cortex using (-)-[3H]-QNB as radioligand.
Experiment [3] can be described thus: Compound was evaluated for its binding affinity against muscarinic acetylcholine receptor M2 in guinea pig heart using (-)-[3H]-QNB as radioligand. The source holds these as a separate data set.
A short description of experiment [4]: Compound was evaluated for its binding affinity against Muscarinic acetylcholine receptor M1 in guinea pig cerebral cortex using (-)-[3H]-QNB as radioligand. This is another data set of the same source.
The nature of experiment [5]: Compound was evaluated for its binding affinity against muscarinic acetylcholine receptor M2 in guinea pig heart using (-)-[3H]-QNB as radioligand. This is another data set of the same source.

As for `C[C@H]1CC2(CO1)CN1CCC2CC1` (stereo partly specified), the Ki is more than 20 µM in experiment [1] and 6.5 µM in experiment [2].
As for `CC1(C)OCC2(CN3CCC2CC3)O1` (stereo unspecified), the inhibition constant Ki in experiment [3] was 30 µM; in experiment [4], 9.3 µM.
`C[C@H]1CCC2(CN3CCC2CC3)O1` (stereo partly specified): the inhibitory constant (Ki) in experiment [5] and in experiment [4] was 15 µM throughout.
As for `C[C@@H]1OCC2(CN3CCC2CC3)O1` (stereo partly drawn) [(2'S)-2'-methylspiro[4-azabicyclo[2.2.2]octane-2,4'-[1,3]dioxolane]], the Ki is more than 21 µM in experiment [5] and 6.3 µM in experiment [4].
On the same counts, the results for `C[C@@H]1CC2(CO1)CN1CCC2CC1` (stereo partly specified) are more than 20 µM and 6.3 µM.
Turning to `C1OCC2(CN3CCC2CC3)O1` (stereo unspecified), the figures for the Ki in experiment [3] and in experiment [4] were 50 µM and 19 µM, respectively.
On the same counts, the results for `C[C@H]1OCC2(CN3CCC2CC3)O1` (stereo partly drawn) [(2'S)-2'-methylspiro[4-azabicyclo[2.2.2]octane-2,4'-[1,3]dioxolane]] are 9.7 µM and 2.9 µM.
For `C[C@@H]1CCC2(CN3CCC2CC3)O1` (stereo partly specified), the values for the Ki in experiment [1] and in experiment [2] were more than 25 µM and 20 µM, respectively.
